pIC50: −log10 of the molar value.
Legend:
[1] = target: human HSP90 alpha protein (N-terminal, amino acids 2 to 236) (Homo sapiens (Human), UniProt P07900); assay: Determination of HSP90-binding activity (AlphaScreen competitive assay with biotinylated geldanamycin); conditions: inhibition of binding of biotinylated geldanamycin to purified HSP90 N-terminal protein, read-out: HSP-binding activity IC50
Outline: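 His-tagged N-terminal construct (aa 2–236) expressed in E. coli and purified was preincubated with compound 2 h at room temperature, then biotinylated geldanamycin (40 nM/well) added for 1 h. AlphaScreen nickel-chelate acceptor/streptavidin donor beads, 1 h dark; percent inhibition calculated against no-compound signal.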

SK-BR-3 cells = assay: Determination of cell growth inhibition (crystal violet staining method); assay type: cell-based; conditions: Homo sapiens; breast cancer cells SK-BR-3, 72 hours culture with test substance
Outline: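 SK-BR-3 cells seeded 5,000/well, cultured 24 h at 37 °C, then exposed to compound for 72 h. Cells fixed with glutaraldehyde, stained with 0.05% crystal violet, eluted and read at 540 nm; percent growth inhibition calculated versus untreated wells.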

SMILES	pIC50 [1]	pIC50 (SK-BR-3 cells)
COCCNc1cc(-c2nc(C)cc3c(-n4cnc(-c5cnn(C)c5)c4)cccc23)ccc1C(N)=O [Example 98, 2-(2-Methoxyethylamino)-4-(3-methyl-5-(4-(1-methyl-1H-pyrazol-4-yl)-1H-imidazol-1-yl)isoquinolin-1-yl)benzamide]	7.10	7.70
Cc1ccc(-c2cn(-c3cccc4c(-c5ccc(C(N)=O)c(NC(C)(C)C)c5)cc(C(F)(F)F)nc34)cn2)cn1 [Example 99, 2-(Tert-butylamino)-4-(8-(4-(6-methylpyridin-3-yl)-1H-imidazol-1-yl)-2-(trifluoromethyl)quinolin-4-yl)benzamide]	6.57	7.40
Cc1ccc(-c2cn(-c3cccc4c(-c5ccc(C(N)=O)cc5C)cc(C(F)(F)F)nc34)cn2)cn1 [Example 100, 3-Methyl-4-(8-(4-(6-methylpyridin-3-yl)-1H-imidazol-1-yl)-2-(trifluoromethyl)quinolin-4-yl)benzamide]	6.47	6.59
Cc1cc(-c2ccc(C(N)=O)c(N)c2)c2cccc(-n3cnc(-c4cnn(C)c4)c3)c2n1 [Example 101, 2-Amino-4-(2-methyl-8-(4-(1-methyl-1H-pyrazol-4-yl)-1H-imidazol-1-yl)quinolin-4-yl)benzamide]	6.92	6.92
Cc1cc(-c2ccc(C(N)=O)cc2C)c2cccc(-n3cnc(-c4cnn(C)c4)c3)c2n1 [Example 102, 3-Methyl-4-(2-methyl-8-(4-(1-methyl-1H-pyrazol-4-yl)-1H-imidazol-1-yl)quinolin-4-yl)benzamide]	6.60	6.20
CCc1cc(-c2ccc(C(N)=O)c(NC(C)(C)C)c2)c2cccc(-n3cnc(-c4cnn(C)c4)c3)c2n1 [Example 103, 2-(Tert-butylamino)-4-(2-ethyl-8-(4-(1-methyl-1H-pyrazol-4-yl)-1H-imidazol-1-yl)quinolin-4-yl)benzamide]	6.92	8.00
CCc1cc(-c2ccc(C(N)=O)c(N)c2)c2cccc(-n3cnc(-c4cnn(C)c4)c3)c2n1 [Example 104, 2-Amino-4-(2-ethyl-8-(4-(1-methyl-1H-pyrazol-4-yl)-1H-imidazol-1-yl)quinolin-4-yl)benzamide]	7.22	8.00
Cn1cc(-c2cn(-c3cccc4c(-c5ccc(C(N)=O)c(NC(C)(C)C)c5)cc(C5CC5)nc34)cn2)cn1 [Example 105, 2-(Tert-butylamino)-4-(2-cyclopropyl-8-(4-(1-methyl-1H-pyrazol-4-yl)-1H-imidazol-1-yl)quinolin-4-yl)benzamide]	6.40	7.70
NC(=O)c1ccc(-c2cc(C(F)(F)F)nc3c(-n4cnc(-c5ccccc5)c4)cccc23)cc1N [Example 108, 2-Amino-4-(8-(4-phenyl-1H-imidazol-1-yl)-2-(trifluoromethyl)quinolin-4-yl)benzamide]	5.43	6.47
CC(C)OCCNc1cc(-c2cc(C(F)(F)F)nc3c(-n4cnc(-c5ccccc5)c4)cccc23)ccc1C(N)=O [Example 109, 2-(Isopropoxyethylamino)-4-(8-(4-phenyl-1H-imidazol-1-yl)-2-(trifluoromethyl)quinolin-4-yl)benzamide]	5.36	6.68
NC(=O)c1ccc(-c2cc(C(F)(F)F)nc3c(-c4cnc5ccccc5c4)cccc23)cc1N [Example 110, 2-Amino-4-(2′-(trifluoromethyl)-3,8′-biquinolin-4′-yl)benzamide]	6.42	7.00
CC(C)OCCNc1cc(-c2cc(C(F)(F)F)nc3c(-c4cnc5ccccc5c4)cccc23)ccc1C(N)=O [Example 111, 2-(2-Isopropoxyethylamino)-4-(2′-(trifluoromethyl)-3,8′-biquinolin-4′-yl)benzamide]	6.08	7.22
CC(C)c1cc(-c2ccc(C(N)=O)c(NC(C)(C)C)c2)c2cccc(-n3cnc(-c4cnn(C)c4)c3)c2n1 [Example 112, 2-(Tert-butylamino)-4-(2-isopropyl-8-(4-(1-methyl-1H-pyrazol-4-yl)-1H-imidazol-1-yl)quinolin-4-yl)benzamide]	6.30	7.70
CC(C)c1cc(-c2ccc(C(N)=O)c(N)c2)c2cccc(-n3cnc(-c4cnn(C)c4)c3)c2n1 [Example 113, 2-Amino-4-(2-isopropyl-8-(4-(1-methyl-1H-pyrazol-4-yl)-1H-imidazol-1-yl)quinolin-4-yl)benzamide]	7.10	8.00

Second part, the compound after the results:

pIC50 [1]	pIC50 (SK-BR-3 cells)	SMILES
7.15	8.00	NC(=O)c1ccc(-c2nc(C(F)(F)F)nc3c(-c4cnc5ccccc5c4)cccc23)cc1NC1CCC(O)CC1 (stereo not shown) [Example 114, 2-(4-Hydroxycyclohexylamino)-4-(8-(quinolin-3-yl)-2-(trifluoromethyl)quinazolin-4-yl)benzamide]
6.85	8.00	NC(=O)c1ccc(-c2nc(C3CC3)nc3c(-c4cnc5ccccc5c4)cccc23)cc1NC1CCC(O)CC1 (stereo not shown) [Example 115, 4-(2-Cyclopropyl-8-(quinolin-3-yl)quinazolin-4-yl)-2-(4-hydroxycyclohexylamino)benzamide]
6.54	7.30	NC(=O)c1ccc(-c2ccnc3c(-c4cnc5ccccc5c4)cccc23)cc1NC1CCC(O)CC1 (stereo not shown) [Example 117, 4-(3,8′-Biquinolin-4′-yl)-2-(4-hydroxycyclohexylamino)benzamide]
6.60	7.22	Cc1ccc(-c2cn(-c3cccc4c(-c5ccc(C(N)=O)c(N)c5)cc(C(F)(F)F)nc34)cn2)cn1 [Example 118, 2-Amino-4-(8-(4-(6-methylpyridin-3-yl)-1H-imidazol-1-yl)-2-(trifluoromethyl)quinolin-4-yl)benzamide]
6.08	6.08	CCNc1cc(-c2cccc3c(-n4cnc(-c5cnn(C)c5)c4)ccnc23)ccc1C(N)=O [Example 119, 2-(Ethylamino)-4-(4-(4-(1-methyl-1H-pyrazol-4-yl)-1H-imidazol-1-yl)quinolin-8-yl)benzamide]
6.72	7.52	CCc1cc(-c2ccc(C(N)=O)c(N)c2)c2cccc(-c3cnc4ccccc4c3)c2n1 [Example 120, 2-Amino-4-(2′-ethyl-3,8′-biquinolin-4′-yl)benzamide]
6.74	7.70	CC(C)c1cc(-c2ccc(C(N)=O)c(N)c2)c2cccc(-c3cnc4ccccc4c3)c2n1 [Example 121, 2-Amino-4-(2′-isopropyl-3,8′-biquinolin-4′-yl)benzamide]
7.05	8.00	CCc1cc(-c2ccc(C(N)=O)c(N)c2)c2cccc(-n3cnc(-c4cccnc4)c3)c2n1 [Example 122, 2-Amino-4-(2-ethyl-8-(4-(pyridin-3-yl)-1H-imidazol-1-yl)quinolin-4-yl)benzamide]
6.80	8.00	CC(C)c1cc(-c2ccc(C(N)=O)c(N)c2)c2cccc(-n3cnc(-c4cccnc4)c3)c2n1 [Example 123, 2-Amino-4-(2-isopropyl-8-(4-(pyridin-3-yl)-1H-imidazol-1-yl)quinolin-4-yl)benzamide]
6.89	7.70	CCc1cc(-c2ccc(C(N)=O)c(N)c2)c2cccc(-n3cnc(-c4ccc(C)nc4)c3)c2n1 [Example 124, 2-Amino-4-(2-ethyl-8-(4-(6-methylpyridin-3-yl)-1H-imidazol-1-yl)quinolin-4-yl)benzamide]
6.80	8.00	Cc1ccc(-c2cn(-c3cccc4c(-c5ccc(C(N)=O)c(N)c5)cc(C(C)C)nc34)cn2)cn1 [Example 125, 2-Amino-4-(2-isopropyl-8-(4-(6-methylpyridin-3-yl)-1H-imidazol-1-yl)quinolin-4-yl)benzamide]
5.82	6.46	CC(C)(C)Nc1cc(-c2nccc3c(-c4cnc5ccccc5c4)cccc23)ccc1C(N)=O [Example 126, 2-(Tert-butylamino)-4-(5-(quinolin-3-yl)isoquinolin-1-yl)benzamide]
6.68	7.30	CC(C)(C)Nc1cc(-c2nccc3c(-n4cnc(-c5cccnc5)c4)cccc23)ccc1C(N)=O [Example 127]
6.51	5.97	Cn1cc(-c2cn(-c3cccc4c(-c5ccc(C(N)=O)c(N)c5)nccc34)cn2)cn1 [Example 128, 2-Amino-4-(5-(4-(1-methyl-1H-pyrazol-4-yl)-1H-imidazol-1-yl)isoquinolin-1-yl)benzamide]
6.96	7.22	Cn1cc(-c2cn(-c3cccc4c(-c5ccc(C(N)=O)c(NC(C)(C)C)c5)ccnc34)cn2)cn1 [Example 130, 2-(Tert-butylamino)-4-(8-(4-(1-methyl-1H-pyrazol-4-yl)-1H-imidazol-1-yl)quinolin-4-yl)benzamide]
6.59	6.85	CC(C)(C)Nc1cc(-c2ccnc3c(-n4cnc(-c5cccnc5)c4)cccc23)ccc1C(N)=O [Example 131, 2-(Tert-butylamino)-4-(8-(4-(pyridin-3-yl)-1H-imidazol-1-yl)quinolin-4-yl)benzamide]
6.49	6.02	Cn1cc(-c2cn(-c3cccc4c(-c5ccc(C(N)=O)c(N)c5)ccnc34)cn2)cn1 [Example 132, 2-Amino-4-(8-(4-(1-methyl-1H-pyrazol-4-yl)-1H-imidazol-1-yl)quinolin-4-yl)benzamide]
6.08	5.88	NC(=O)c1ccc(-c2ccnc3c(-n4cnc(-c5cccnc5)c4)cccc23)cc1N [Example 133]
